Results reported in patent US20220339094A1, “NOVEL SKIN CARE COMPOSITION” (BEIERSDORF AG, priority 2019, published 2022).

Tests used:
C. acnes strain K8 = test: Minimum inhibitory concentration (MIC) of cosmetic excipients, strain K8; assay type: cell-based, Cutibacterium acnes; settings: % w/vol, anaerobic 3 days at 37° C, visual growth scoring
Protocol: (§1) In microbiology, the MIC is the lowest concentration of a chemical which prevents visible growth of bacterium. The resulted MIC value depends both on the microorganism and the test compound. The MIC is determined by preparing concentrations series of the test compound in vitro, incubating the solutions with the separate batches of cultured bacteria, and measuring the results using agar dilution or broth microdilution. For the experiments with C. acnes strains C3 and K8, media comprising yeast extract soy peptone and dextrose were used. The MIC is determined by turbidity.
(§2) A total of 125 cosmetic excipients were tested for their compatibility with C. acnes strains C3 and K8. Hydrophilic compounds were tested in a 96-well plate liquid broth format, poorly soluble compounds were pre-dissolved in DMSO before dilution in liquid broth and hydrophobic or solid compounds were tested in an agar well diffusion test assay. The different dilutions of the test excipients in media were prepared in Falcon tubes and then distributed in a deep well plate using a multistepper. Each well received 1.2 ml and was subsequently inoculated with 120 μl of C. acnes bacteria suspension (strain C3 and K8). From the deep well plate 200 μl were transferred in each well of a clear 96 well replicate plate. The leftover was discarded. The plates were then incubated anaerobically for 3 days at 37° C. Following incubation, the test plates were visually examined and wells were scored for growth or complete growth inhibition to define the minimum inhibitory concentration.
(§3) These excipients are listed in the below table with their compatibility values for C. acnes strains C3 and K8. The compatibility values represent the MIC value of the listed ingredients with the tested C. acnes strains. At this concentration [% w/vol] the tested compound starts interfering with the growth of the tested strains. The compounds can be used in formulations at concentrations below this concentration.

C. acnes strain C3 = test: Minimum inhibitory concentration (MIC) of cosmetic excipients, strain C3; assay type: cell-based, Cutibacterium acnes; settings: % w/vol, anaerobic 3 days at 37° C, visual growth scoring
Protocol: as §1, §2, §3

Compound | COMPATABILITY VALUE K8 (MIC) (C. acnes strain K8) | COMPATABILITY VALUE C3 (MIC) (C. acnes strain C3)
CC(=O)Oc1c(C)c(C)c2c(c1C)CCC(C)(CCC[C@H](C)CCC[C@H](C)CCCC(C)C)O2 (stereo partly drawn) [tocopheryl acetate] | 1.00% | 
tocopherol | 1.50% | 1.50%
CCCCCCC(O)CO (stereo not drawn) [caprylyl glycol] | 0.18% | 0.18%
O=C(O)CC(O)(CC(=O)O)C(=O)O [citric acid] | 0.08% | 
peg-40 hydrogenated castor oil | 1.00% | 1.00%
CC(CO)CO [methylpropanediol] | 4.00% | 4.00%
ethylhexyl cocoate | 10.00% | 10.00%
